For one assay, the target named is T1, 14-3-3ζ (Homo sapiens, UniProt P63104).
T1 construct: Full-length expression and purification of 14-3-3; made in house; host or cells: E. coli BL21 (DE3)STAR
T1 sequence (P63104 1-245): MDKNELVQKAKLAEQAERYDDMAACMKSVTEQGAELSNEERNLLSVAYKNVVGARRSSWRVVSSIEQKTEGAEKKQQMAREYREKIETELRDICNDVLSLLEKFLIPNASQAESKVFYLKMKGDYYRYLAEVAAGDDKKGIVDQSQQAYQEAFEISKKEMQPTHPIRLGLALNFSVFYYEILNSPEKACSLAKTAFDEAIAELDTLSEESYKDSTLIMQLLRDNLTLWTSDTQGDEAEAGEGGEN
The experiment in a line: FP assay with GR phosphorylated peptides and 14-3-3ζ. The conditions noted are these: for Kd: triplicates. It counts as binding. In a few lines:
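Fluorescence polarization (ex 485/em 520 nm) was read in triplicate after 30-min RT incubation. Binding data were fitted to a standard Hill equation and expressed in mP units. The dynamic range (ΔmP) is the difference between bound and free peptide signals.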

A further assay concerns the target T2, 14-3-3σ (Homo sapiens, UniProt P31947).
T2 construct: Full-length expression and purification of 14-3-3; made in house; host or cells: E. coli BL21 (DE3)STAR
T2 sequence (P31947 1-248): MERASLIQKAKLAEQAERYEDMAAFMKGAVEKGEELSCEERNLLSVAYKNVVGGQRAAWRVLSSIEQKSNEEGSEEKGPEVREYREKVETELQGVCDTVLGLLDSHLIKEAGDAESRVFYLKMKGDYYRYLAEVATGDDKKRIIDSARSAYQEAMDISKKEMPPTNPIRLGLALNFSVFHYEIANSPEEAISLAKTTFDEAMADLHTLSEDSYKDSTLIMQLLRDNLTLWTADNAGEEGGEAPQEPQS
The assay can be described thus: FP assay with GR phosphorylated peptides and 14-3-3σ. The format is binding. The conditions noted are these: FITC-labeled peptide titrated with 14-3-3σ, 30 min RT, triplicates. How it is done: After 30-min incubation at RT, the plates were read on a plate reader PHERAstar (BMG LABTECH GmbH) for FP signal using […] and standard excitation (485 nm) and emission (520 nm). Measurements were performed as triplicates. Binding data were fit to a standard Hill equation using the software Genedata Screener. The figures were made using the software GraphPad Prism 8. FP data were expressed as millipolarization (mP) units, and the dynamic range (ΔmP) was the difference of the signals from the bound peptide and free peptide. Errors are the standard error of the fit.

Assay [1] has as its system GR–14-3-3 interaction in HEK293 and U2OS cells. The assay can be described thus: Co-IP and far-Western blotting overlay of GR with 14-3-3 after cell stimulation. The format is cell-based. The conditions noted are these: HEK293 and U2OS cells transfected with WT GR, overnight starvation; forskolin 20 µM for 30 min, calyculin A 50 nM for 10 min. How it is done: The interaction between the full-length GR and 14-3-3 was investigated in a cellular system to validate the relevance of the peptide studies.
The HEK293 and U2OS cell lines (American Type Culture Collection) were cultured in Dulbecco's modified Eagle's medium, supplemented with 10% fetal bovine serum and 1% penicillin-streptomycin (10,000 U/ml) at 37 °C in a 5% CO2 environment. For the Co-IP assay, 3 × 10^6 cells were seeded in a 15-cm cell culture dish. At 60 to 70% confluence, the HEK293 cells were transiently transfected with a mixture of 6-μg GFP-MINK1 or GFP-GR DNA and 24-μl lipofectamine 2000 in 2-ml Opti-MEM for 24 h. […]
(§1) Cells were collected and lysed in radioimmunoprecipitation assay buffer containing 50-mM Tris-HCl, pH 8, 150-mM NaCl, 1-mM EDTA, 0.1% SDS, 1% Na deoxycholate, and 1% NP-40 supplemented with a protease inhibitor cocktail. After lysis, the concentration of protein was quantified by the Bradford test. […]
(§2) Eluted proteins were resolved on a NuPAGE 4 to 12% Bis-Tris Protein Gels, 1.0 mm. […] After washing with TBST, the blots were detected using an Odyssey CLx Imaging system (LI-COR). […]
Samples containing proteins from the Co-IP assay or GR LBD in vitro phosphorylated were loaded on a NuPAGE 4 to 12% Bis-Tris Protein Gels, 1.0 mm, and separated. […] After washing with TBST, the blots were detected using an Odyssey CLx Imaging system (LI-COR). […]

The test system of assay [2] is MINK1–14-3-3 interaction in HEK293 cells. The experiment in a line: Co-IP and far-Western blotting overlay of MINK1 with 14-3-3 after cell stimulation. The format is cell-based. The conditions noted are these: HEK293 cells transfected with GFP-MINK1; forskolin 20 µM for 30 min, calyculin A 50 nM for 10 min. The protocol:
The HEK293 and U2OS cell lines (American Type Culture Collection) were cultured in Dulbecco's modified Eagle's medium, supplemented with 10% fetal bovine serum and 1% penicillin-streptomycin (10,000 U/ml) at 37 °C in a 5% CO2 environment. For the Co-IP assay, 3 × 10^6 cells were seeded in a 15-cm cell culture dish. At 60 to 70% confluence, the HEK293 cells were transiently transfected with a mixture of 6-μg GFP-MINK1 or GFP-GR DNA and 24-μl lipofectamine 2000 in 2-ml Opti-MEM for 24 h. At 60 to 70% confluence, the U2OS cells were transiently transfected with a mixture of 8-μg GFP-MINK1 or GFP-GR and/or FLAG-MINK1 DNA and 32-μl X-tremeGENE 9 DNA in 2 ml Opti-MEM for 24 h. Stimulation with forskolin, H89, IGF-1, and PI303 was preceded by a cell starvation step where the cells were incubated with DMEM without supplements overnight. […]
as §1, §2

Assay [3] deals with T3, human 14-3-3ζ, full length, 6His-Linker-h14-3-3 (human, UniProt P63104 1-245).
T3 chain: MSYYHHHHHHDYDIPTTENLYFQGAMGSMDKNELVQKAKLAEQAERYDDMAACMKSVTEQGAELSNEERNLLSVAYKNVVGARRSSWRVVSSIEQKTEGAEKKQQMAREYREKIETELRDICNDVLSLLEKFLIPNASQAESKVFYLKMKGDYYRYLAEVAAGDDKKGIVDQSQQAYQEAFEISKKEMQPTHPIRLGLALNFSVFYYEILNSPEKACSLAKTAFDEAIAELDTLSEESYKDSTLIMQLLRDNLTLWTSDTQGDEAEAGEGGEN
The experiment in a line: SPR.

For orientation: Kd means the concentration at which binding is half-saturated.

Like-named read-outs stand apart in the source and are kept apart here. Non-standard residues stand in square brackets, D forms with d. Residues, ends and D or L forms follow the SMILES beside them. No end group written: not given here. pT = C[C@@H](OP(=O)(O)O)[C@H](N)C(=O)O; pS = N[C@@H](COP(=O)(O)O)C(=O)O Some results are limits rather than exact numbers.

For `CC[C@H](C)[C@H](NC(=O)[C@H](CCCCN)NC(=O)[C@H](CCCCN)NC(=O)[C@H](CCCCN)NC(=O)[C@@H](NC(=O)[C@H](CCCCN)NC(=O)[C@H](CCCNC(=N)N)NC(=O)[C@H](C)NC(=O)[C@H](CCC(=O)O)NC(=O)[C@H](CC(C)C)NC(=O)[C@@H](N)CC(N)=O)[C@@H](C)OP(=O)(O)O)C(=O)N[C@@H](CCCCN)C(=O)NCC(=O)O` [GR_pT493] (H-NLEARK[pT]KKKIKG-OH; N-terminus assumed), the Kd was greater than 150000 nM at 14-3-3ζ (FITC-labeled peptide 60 nM (monophosphorylated) or 10 nM (doubly phosphorylated) titrated with 14-3-3ζ, 30 min RT, Hill fit, read-out: Kd with 14-3-3ζ by FP) and greater than 150 µM on 14-3-3σ.

With `CC[C@H](C)[C@H](NC(=O)[C@@H](NC(=O)[C@H](CCCCN)NC(C)=O)[C@@H](C)O)C(=O)N[C@H](C(=O)N1CCC[C@H]1C(=O)N[C@@H](C)C(=O)N[C@H](C(=O)N[C@@H](CC(C)C)C(=O)N1CCC[C@H]1C(=O)N[C@@H](CCC(N)=O)C(=O)N[C@@H](CC(C)C)C(=O)N[C@H](C(=O)N1CCC[C@H]1C(=O)NCC(=O)NCC(=O)NCC(=O)NCC(=O)NCC(=O)N[C@@H](CCCNC(=N)N)C(=O)N[C@@H](CO)C(=O)N[C@@H](Cc1ccc(O)cc1)C(=O)N[C@@H](CCCNC(=N)N)C(=O)N[C@@H](CCC(N)=O)C(=O)N[C@@H](CO)C(=O)N[C@@H](COP(=O)(O)O)C(=O)N[C@@H](C)C(=O)N[C@@H](CC(N)=O)C(=O)N[C@@H](CC(C)C)C(=O)N[C@@H](CC(C)C)C(=O)N[C@@H](CS)C(=O)N[C@@H](Cc1ccccc1)C(=O)O)[C@@H](C)O)[C@@H](C)OP(=O)(O)O)C(C)C` [GR_pT524-pS617] (Ac-KTIVPA[pT]LPQLTPGGGGGRSYRQS[pS]ANLLCF-OH), the Kd came to 18 nM on 14-3-3ζ (FP, doubly phosphorylated 31-mer peptides, read-out: Kd with 14-3-3ζ (values in nM)) and 0.053 ± 0.026 µM at 14-3-3σ. On 14-3-3ζ (avidity effect of dimeric peptide), the “fold improvement of binding affinity with 14-3-3ζ compared with the individual monomers” value was 1000 fold.

For the molecule `COC[C@@H]([C@H](O)[C@H](O)C(=O)NCC[C@H](C)c1nc(/C=C/C[C@@H]2O[C@]3(C[C@@H](O)[C@@H]2C)O[C@H]([C@H](C[C@H](O)[C@H](C)[C@H](O)[C@H](C)/C=C(C)/C(C)=C/C=C/C(C)=C\C#N)OC)[C@H](OP(=O)(O)O)C3(C)C)co1)N(C)C` [calyculin A], in assay [1], the “GR interaction with 14-3-3 proteins upon stimulation” value is given as “GR interacted with 14-3-3 proteins”. In assay [2], the “MINK1 interaction with 14-3-3 upon stimulation” value is on record as “MINK1 also interacts with 14-3-3”.

In the case of `C=C[C@@]1(C)CC(=O)[C@]2(O)[C@@]3(C)[C@@H](O)CCC(C)(C)[C@@H]3[C@H](O)[C@H](OC(C)=O)[C@@]2(C)O1` [forskolin], the “GR interaction with 14-3-3 proteins upon stimulation” value in assay [1] was “GR interacted with 14-3-3 proteins”. Further, the “MINK1 interaction with 14-3-3 upon stimulation” value in assay [2] is “MINK1 also interacts with 14-3-3”.

KTIVPATLPQLTP (also: phosphothreonine at T524, place in chain not given here) [GR_pT524, 13-mer phosphopeptide used for SPR and crystallography] gave a Kd in assay [3] of 22 µM.

Source of the values: article PMC8080530, “Glucocorticoid receptor Thr524 phosphorylation by MINK1 induces interactions with 14-3-3 protein regulators” (The Journal of Biological Chemistry, 2021).
